# In US9302999B2, “Substituted triazoles as herbicides” (E. I. DU PONT DE NEMOURS AND COMPANY, priority 2012, dated 2016):
# Columns and labels:
# [1] = system: soybean (Glycine max); experiment: Test F pre-/postemergence: soybean; format: in vivo
# Text: Seeds of plant species selected from corn (Zea mays), soybean (Glycine max), velvetleaf (Abutilon theophrasti), lambsquarters (Chenopodium album), poinsettia, wild (wild poinsettia, Euphorbia heterophylla), pigweed, palmer (palmer pigweed, Amaranthus palmeri), waterhemp (common waterhemp, Amaranthus rudis), surinam grass (Brachiaria decumbens), crabgrass, Brazil (Brazilian crabgrass, Digitaria horizontalis), panicum, fall (fall panicum Panicum dichotomiflorum), crabgrass, large (large crabgrass, Digitaria sanguinalis), foxtail, giant (giant foxtail, Setaria faberii), foxtail, green (green foxtail Setaria viridis), goosegrass (Eleusine indica), ragweed (common ragweed, Ambrosia elatior), barnyardgrass (Echinochloa crus-galli), sandbur (southern sandbur, Cenchrus echinatus), arrowleaf sida (Sida rhombifolia), ryegrass, Italian (Italian ryegrass, Lolium multiflorum), dayflower, VA (Virginia (VA) dayflower, Commelina virginica), field bindweed (Convolvulus arvensis), cocklebur (common cocklebur, Xanthium strumarium), morningglory (Ipomoea coccinea), nightshade (eastern black nightshade, Solanum ptycanthum), kochia (Kochia scoparia), nutsedge, yellow (yellow nutsedge, Cyperus esculentus), johnsongrass (Sorghum halepense), smartweed (ladysthumb smartweed, Polygonum persicaria), and beggarticks (hairy beggarticks, Bidens pilosa), were planted into a silt loam soil and treated preemergence with test chemicals formulated in a non-phytotoxic solvent mixture which included a surfactant. At the same time, plants selected from these crop and weed species and also pigweed (Amaranthus retroflexus), waterhemp_RES1 (ALS/Triazine resistant common waterhemp, Amaranthus rudis) and waterhemp_RES2 (ALS/HPPD resistant common waterhemp, Amaranthus rudis) were planted in pots containing a planting medium comprising spaghnum peat moss, vermiculite, wetting agent and starter nutrients treated with postemergence applications of some of the test chemicals formulated in the same manner. Plants ranged in height from 2 to 18 cm for postemergence treatments (1- to 4-leaf stage).
# Treated plants and controls were maintained in a greenhouse for 14 to 21 days, after which time all species were compared to controls and visually evaluated. Plant response ratings, summarized in Table E, are based on a scale of 0 to 100 where 0 is no effect and 100 is complete control. A dash (-) response means no test result.
# [2] = system: Barnyardgrass; experiment: Test C postemergence: barnyardgrass; format: in vivo, Echinochloa crus-galli
# Text: At the same time, plants selected from these crop and weed species and also barley (winter barley, Hordeum vulgare), canarygrass (Phalaris minor), chickweed (common chickweed, Stellaria media) windgrass (Apera spica-venti) and deadnettle (henbit deadnettle, Lamium amplexicaule) were planted in pots containing Redi-Earth® planting medium (Scotts Company, 14111 Scottslawn Road, Marysville, Ohio 43041) comprising spaghnum peat moss, vermiculite, wetting agent and starter nutrients and treated with postemergence applications of test chemicals formulated in the same manner. Plants ranged in height from 2 to 18 cm (1- to 4-leaf stage) for postemergence treatments.
# Treated plants and controls were maintained in a greenhouse for 13 to 15 days, after which time all species were compared to controls and visually evaluated. Plant response ratings, summarized in Table C, are based on a scale of 0 to 100 where 0 is no effect and 100 is complete control. A dash (-) response means no test result.
# [3] = system: Oilseed Rape; experiment: Test C preemergence: oilseed rape; format: in vivo; conditions: scale of 0 to 100, 0 is no effect, 100 is complete control
smiles,measurement,setting,value
Cc1nn(-c2ccc(C(F)(F)F)c(F)c2)nc1Cc1ccnc(C(F)(F)F)c1 [Compound 162],"Plant response rating, Soybean","[1]; Postemergence, 4 g ai/ha, scale 0 to 100",20
same,"Plant response rating, Soybean","[1]; Postemergence, 8 g ai/ha, scale 0 to 100",30
same,"Plant response rating, Soybean","[1]; Postemergence, 16 g ai/ha, scale 0 to 100",30
same,"Plant response rating, Soybean","[1]; Postemergence, 31 g ai/ha, scale 0 to 100",45
same,"Plant response rating, Soybean","[1]; Postemergence, 62 g ai/ha, scale 0 to 100",55
same,"Plant response rating, Soybean","[1]; Preemergence, 4 g ai/ha, scale 0 to 100, 0 no effect, 100 complete control",0
same,"Plant response rating, Soybean","[1]; Preemergence, 8 g ai/ha, scale 0 to 100, 0 no effect, 100 complete control",0
same,"Plant response rating, Soybean","[1]; Preemergence, 16 g ai/ha, scale 0 to 100 (0 no effect, 100 complete control)",0
same,"Plant response rating, Soybean","[1]; Preemergence, 31 g ai/ha, scale 0 to 100 (0 no effect, 100 complete control)",25
same,"Plant response rating, Barnyardgrass","[2]; 31 g ai/ha, scale 0 to 100 (0 no effect, 100 complete control)",20
same,"Plant response rating, Barnyardgrass","[2]; 62 g ai/ha, scale 0 to 100 (0 no effect, 100 complete control)",65
same,"Plant response rating, Barnyardgrass","[2]; 250 g ai/ha, scale 0 to 100",95
same,"Plant response rating, Oilseed Rape",[3]; 31 g ai/ha,80
same,"Plant response rating, Oilseed Rape",[3]; 62 g ai/ha,100
